Entries after “also recorded” stand apart in the source; their conditions may differ.
Key:
Type in all cases: cell-based
IL-2 promoter [1] = test: IL-2 promoter luciferase reporter gene assay in Jurkat T cells; conditions: PMA and ionomycin
IL-2 promoter [2] = test: IL-2 promoter activation in T cells expressing calcineurin mutant; conditions: expressed in T cells
[3] = molecular target: T1, interaction between Cabin 1-14 and full length calcineurin β2 (H160N) (Homo sapiens, UniProt P16298, H160N); test: mammalian two-hybrid assay in Jurkat T cells (luciferase reporter); conditions: Jurkat T cells, PMA/ionomycin stimulated, drug added 30 min prior to stimulation
T1 construct: expressed in transfected cells; host or cells: Jurkat T cells
Source text: A mammalian two-hybrid system was established in Jurkat T cells by fusing calcineurin with the Gal4 DNA binding domain and Cabin 1-14 with the VP16 activation domain (Hsu et al., Proc. Natl. Acid Sci. USA 91:3181-3185 (1994)). The fusion plasmids for mammalian two-hybrid assays were constructed as follows: The cDNAs of calcineurin Aβ2 wild type and H160N mutant were fused to the GAL4 DB in the pM vector (obtained from Clontech, Palo Alto, Calif.) (pMCNβ2 and PMCNβ2 (H160N), and the cDNA of Cabin 1-14 was fused to the VP16 AD in the pVP16 vector (pVPCabin 1-14). Jurkat T cells were transfected with 5 μg of pMCβ2 or pMCβ2 (H160N), 5 μg of pVPCabin 1-14, 1 μg of pCMV-βGal, and 2 μg of pg5Luc, a luciferase reporter plasmid containing GAL4 promoter, by electroporation (960 μF, 250V). After 48 hr, cells were stimulated with 40 nM PMA and 2.5 μM ionomycin, either alone or in combination, for 6 hr before luciferase activity was measured for each sample. The luciferase reporter gene assay reagents were obtained from Promega, Madison, Wis., and the assay was performed per manufacturer's instructions. […] Where appropriate, the transfection efficiency was measured by co-transfecting 2 μg of CMV-driven β-galactosidase expression vector and measuring enzymatic β-galactosidase activity (Ausubel et al., Current Protocols in Molecular Biology (John Wiley & Sons, Inc., New York, 1994)).

Cabin 1: isolated calcineurin binding polypeptide, amino acid sequence SEQ ID NO:1, 2220 amino acids
effect on IL-2 reporter gene activation (IL-2 promoter [1]): lower potency | effect on IL-2 reporter gene activation (IL-2 promoter [1]; listed as Cabin1): inhibit

H 160N: catalytically inactive mutant of the β2 isoform of calcineurin, used as bait
blocking of PMA and ionomycin-stimulated IL-2 promoter activation (IL-2 promoter [2]): over 60%

bisindolylmaleimide
sensitivity of interaction between full length calcineurin β2 (H160N) and Cabin 1-14 to drug [3]: inhibited the interaction between calcineurin and Cabin 1-14 in a dose-dependent manner; also recorded: sensitive

cyclosporin A [CsA]
sensitivity of interaction between full length calcineurin β2 (H160N) and Cabin 1-14 to drug [3]: sensitive
